Measurements: article PMC5033673 (Cancer research, 2016)

Molecular target: MutSα (MSH2/MSH6 heterodimer) (Homo sapiens, UniProt P43246+P52701)
Experiment: Biacore SPR
Format: binding

MutSα (MSH2/MSH6 heterodimer), sequence (P43246 2-934): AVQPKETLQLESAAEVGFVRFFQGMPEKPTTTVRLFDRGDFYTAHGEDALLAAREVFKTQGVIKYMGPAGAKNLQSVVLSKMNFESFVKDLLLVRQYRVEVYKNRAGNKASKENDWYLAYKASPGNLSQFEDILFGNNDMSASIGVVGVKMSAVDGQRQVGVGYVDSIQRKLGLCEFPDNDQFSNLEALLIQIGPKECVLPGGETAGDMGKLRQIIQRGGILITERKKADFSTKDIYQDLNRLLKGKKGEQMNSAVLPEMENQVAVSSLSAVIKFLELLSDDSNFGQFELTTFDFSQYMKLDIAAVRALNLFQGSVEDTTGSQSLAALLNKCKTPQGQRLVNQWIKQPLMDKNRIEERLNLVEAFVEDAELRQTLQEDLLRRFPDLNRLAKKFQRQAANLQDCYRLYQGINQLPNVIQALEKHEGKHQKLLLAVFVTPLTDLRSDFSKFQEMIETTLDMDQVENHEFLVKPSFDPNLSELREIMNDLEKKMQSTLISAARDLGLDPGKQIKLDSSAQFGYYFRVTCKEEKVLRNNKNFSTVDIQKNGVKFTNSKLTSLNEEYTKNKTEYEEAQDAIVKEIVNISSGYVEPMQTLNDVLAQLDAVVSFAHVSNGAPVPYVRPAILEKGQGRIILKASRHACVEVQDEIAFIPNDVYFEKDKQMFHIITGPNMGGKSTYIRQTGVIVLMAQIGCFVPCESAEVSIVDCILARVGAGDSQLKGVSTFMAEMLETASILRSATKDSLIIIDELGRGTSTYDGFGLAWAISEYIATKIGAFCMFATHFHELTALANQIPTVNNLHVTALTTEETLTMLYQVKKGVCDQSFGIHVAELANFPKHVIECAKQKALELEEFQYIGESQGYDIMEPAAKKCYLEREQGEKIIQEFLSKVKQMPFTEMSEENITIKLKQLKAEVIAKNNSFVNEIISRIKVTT
MutSα (MSH2/MSH6 heterodimer), sequence (P52701 whole entry): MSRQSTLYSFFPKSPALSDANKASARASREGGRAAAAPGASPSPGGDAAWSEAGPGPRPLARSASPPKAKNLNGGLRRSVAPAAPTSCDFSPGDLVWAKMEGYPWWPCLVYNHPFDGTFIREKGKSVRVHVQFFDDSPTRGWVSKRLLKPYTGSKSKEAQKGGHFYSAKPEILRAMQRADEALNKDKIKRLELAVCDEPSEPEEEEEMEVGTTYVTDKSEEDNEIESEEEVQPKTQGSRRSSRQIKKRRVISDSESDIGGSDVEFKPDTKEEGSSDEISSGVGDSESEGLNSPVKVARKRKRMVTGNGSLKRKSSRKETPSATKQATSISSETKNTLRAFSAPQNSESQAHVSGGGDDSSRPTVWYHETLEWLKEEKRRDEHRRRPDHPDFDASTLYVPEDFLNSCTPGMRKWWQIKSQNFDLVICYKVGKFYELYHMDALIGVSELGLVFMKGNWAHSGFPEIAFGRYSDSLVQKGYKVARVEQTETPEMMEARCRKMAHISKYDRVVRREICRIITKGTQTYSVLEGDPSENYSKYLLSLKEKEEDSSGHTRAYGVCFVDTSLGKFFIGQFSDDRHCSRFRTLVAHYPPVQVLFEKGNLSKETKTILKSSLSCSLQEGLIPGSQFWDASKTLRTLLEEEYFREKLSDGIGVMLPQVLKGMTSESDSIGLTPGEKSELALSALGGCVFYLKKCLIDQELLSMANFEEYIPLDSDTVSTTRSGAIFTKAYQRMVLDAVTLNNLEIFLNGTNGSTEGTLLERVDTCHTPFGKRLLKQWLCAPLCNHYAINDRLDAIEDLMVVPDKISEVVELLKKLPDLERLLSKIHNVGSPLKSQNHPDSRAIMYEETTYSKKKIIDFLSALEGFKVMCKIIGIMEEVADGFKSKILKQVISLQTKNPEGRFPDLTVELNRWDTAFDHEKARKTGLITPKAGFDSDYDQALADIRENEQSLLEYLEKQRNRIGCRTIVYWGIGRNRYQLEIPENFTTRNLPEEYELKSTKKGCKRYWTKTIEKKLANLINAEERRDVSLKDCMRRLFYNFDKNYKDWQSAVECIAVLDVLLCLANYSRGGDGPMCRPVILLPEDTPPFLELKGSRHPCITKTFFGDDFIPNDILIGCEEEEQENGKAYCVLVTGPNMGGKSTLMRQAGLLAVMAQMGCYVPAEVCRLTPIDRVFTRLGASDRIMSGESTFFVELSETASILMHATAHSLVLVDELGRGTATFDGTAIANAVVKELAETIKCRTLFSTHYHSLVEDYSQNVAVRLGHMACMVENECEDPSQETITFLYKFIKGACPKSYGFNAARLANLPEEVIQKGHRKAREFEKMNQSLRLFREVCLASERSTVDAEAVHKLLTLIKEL

SMILES: O=c1cc(-c2ccccc2)oc2cc(O)c(O)c(O)c12 [baicalein, 5,6,7-trihydroxyflavone]
- Kd: ~32.2 µM
